Experimental data from publication PMC8116058, “De novo macrocyclic peptides dissect energy coupling of a heterodimeric ABC transporter by multimode allosteric inhibition” (eLife, 2021).
Positions of bridges follow the written chain, without caps; N, C: chain ends. Non-standard residues stand in square brackets, D forms with d. Residues, ends and D or L forms follow the SMILES beside them. *: point of attachment. 5FAM = O=C1OC2(c3ccc(O)cc3Oc3cc(O)ccc32)c2ccc(C(=O)*)cc21; βAla = NCCC(=O)O

Target: outward-facing TmrA^EQB trapped with Mg-ATP (Thermus thermophilus, UniProt Q72J04+Q72J05, E523Q)
Experiment: Conformation-specific binding by fluorescence anisotropy, OF conformer
Settings: fluorescence polarization, IF TmrAB vs ATP-trapped OF TmrA^EQB
Text: ABC transport complexes such as TmrAB run through multiple conformational states along the ATP hydrolysis cycle to drive unidirectional substrate transport ([Hofmann et al., 2019]; [Stefan et al., 2020]). Within the substrate translocation cycle, two major conformers, inward-facing (IF) and outward-facing (OF), were identified. To investigate whether CPs favor one of these conformers, we probed the binding of CP^Fs by fluorescence polarization analysis. […] In the latter case, the interaction studies were performed immediately after the IF-to-OF switch by incubation with ATP for 5 min at 45°C. To exclude an OF-to-IF return (τ1/2 of 25 min) ([Stefan et al., 2020]), the fluorescence anisotropy was recorded only within the first minute of incubation.
Figure 5. […] Immediately after, the fluorescence anisotropy was assayed at λex/em = 485/520 nm. The difference in fluorescence polarization was normalized to free and fully bound CP^F. Data were fitted by a one-site binding model. […] Occluded nucleotides were analyzed by thin layer chromatography and autoradiography. […] (D) Stably occluded nucleotides, [α^32P]-ATP and [α^32P]-ADP, were quantified by autoradiography. […] The difference in fluorescence polarization was normalized to unbound (0%) and 100% bound CP^F. Data were fitted by a one-site binding model. Fluorescence anisotropy was recorded at λex/em = 485/520 nm. […]

SMILES | Conformational preference of binding, IF vs OF
CC[C@H](C)[C@@H]1NC(=O)[C@H](Cc2c[nH]c3ccccc23)NC(=O)[C@H](CC(N)=O)NC(=O)[C@H](C)NC(=O)[C@H](CO)NC(=O)[C@@H]2CCCN2C(=O)[C@H](CC(=O)O)NC(=O)[C@@H](Cc2ccc(O)cc2)NC(=O)CSC[C@@H](C(=O)NCC(=O)N[C@@H](CO)C(=O)NCCC(=O)NCCC(=O)N[C@@H](CCCNC(=N)N)C(=O)N[C@@H](CCCCNC(=O)c2ccc3c(c2)C(=O)OC32c3ccc(O)cc3Oc3cc(O)ccc32)C(N)=O)NC(=O)[C@H]([C@@H](C)O)NC(=O)[C@H](CC(C)C)NC(=O)[C@H](CC(C)C)NC(=O)[C@H](C(C)C)NC(=O)[C@H](CC(C)C)NC1=O [CP13] ({CH2CO}-[dY]DPSANWILVLLTCGS[βAla][βAla]RK(5FAM)-NH2; thioether N-14; C-terminus assumed) | preference for the OF conformer
CC(C)[C@@H]1NC(=O)[C@H](Cc2ccccc2)NC(=O)[C@@H]2CCCN2C(=O)[C@H](CC(N)=O)NC(=O)[C@H](Cc2c[nH]c3ccccc23)NC(=O)[C@H](C(C)C)NC(=O)[C@H](Cc2ccc(O)cc2)NC(=O)[C@H](Cc2ccccc2)NC(=O)[C@@H](Cc2ccc(O)cc2)NC(=O)CSC[C@@H](C(=O)NCC(=O)N[C@@H](CO)C(=O)NCCC(=O)NCCC(=O)N[C@@H](CCCNC(=N)N)C(=O)N[C@@H](CCCCNC(=O)c2ccc3c(c2)C(=O)OC32c3ccc(O)cc3Oc3cc(O)ccc32)C(N)=O)NC(=O)[C@H](CCCCN)NC(=O)[C@H](Cc2ccccc2)NC1=O [CP14] ({CH2CO}-[dY]FYVWNPFVFKCGS[βAla][βAla]RK(5FAM)-NH2; thioether N-12; C-terminus assumed) | preference for the OF conformer
